# Values quoted from earlier work as cited in paper PMC2831206 (Journal of medicinal chemistry, 2010).
# Tests used:
# PDE9A = conditions: read-out: IC50 with PDE9A
# learning and memory = conditions: rodents
IC50 (PDE9A),SMILES,effect on learning and memory (learning and memory)
> 200 µM,"CC(C)Cn1c(=O)n(C)c(=O)c2nc[nH]c21 [IBMX, 3-isobutyl-1-methylxanthine]",–
–,"C[C@H](Cc1nc2c(cnn2-c2ccccc2Cl)c(=O)[nH]1)C(F)(F)F [compound 1, 1-(2-chlorophenyl)-6-(3,3,3-trifluoro-2-methylpropyl)-1H-pyrazolo[3,4-d]pyrimidine-4(5H)-one]",ability to improve learning and memory in rodents
